Assay results from ChEMBL document CHEMBL3297705, “Discovery of 5,6,7,8-tetrahydropyrido[3,4-d]pyrimidine inhibitors of Erk2” (Bioorg Med Chem Lett, 2014).

Columns and labels:
[1] = biological target: T1, Mitogen-activated protein kinase 1 (Homo sapiens, UniProt P28482)
Description: Inhibition of human recombinant N-terminal 6-His-tagged ERK2 expressed in Escherichia coli using S/T17 as substrate after 30 mins by spectrophotometry

[2] = biological target: T1, Mitogen-activated protein kinase 1; remark: listed apart in the source
Description: Inhibition of ERK2 in human HepG2 cells assessed as P90RSK phosphorylation at Ser380 after 1.5 hrs by fluorescence assay

[3] = biological target: Cyclin-dependent kinase 2 (Homo sapiens, UniProt P24941)
Description: Inhibition of Cdk2 (unknown origin)

[4] = Plasma protein binding in human; type: ADME, cell-free; details: read-out: PPB (converted)

T1 sequence (P28482 whole entry): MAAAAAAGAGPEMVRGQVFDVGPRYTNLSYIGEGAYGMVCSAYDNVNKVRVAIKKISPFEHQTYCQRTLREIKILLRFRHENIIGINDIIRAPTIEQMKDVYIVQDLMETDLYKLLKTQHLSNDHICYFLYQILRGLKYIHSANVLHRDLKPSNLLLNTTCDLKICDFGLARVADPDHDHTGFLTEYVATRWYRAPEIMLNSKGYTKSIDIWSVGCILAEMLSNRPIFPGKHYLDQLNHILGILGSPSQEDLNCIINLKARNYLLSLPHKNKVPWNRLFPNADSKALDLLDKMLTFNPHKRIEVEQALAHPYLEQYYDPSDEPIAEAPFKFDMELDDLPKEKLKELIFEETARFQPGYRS

| SMILES | IC50 [1] [nM] | IC50 [2] [nM] | IC50 [3] [nM] | fraction unbound [4] |
| --- | --- | --- | --- | --- |
| CC(C)Nc1ncc2c(n1)CN(C(=O)NCc1ccc(Cl)c(F)c1)CC2 | 81 | 1630 | – | – |
| CC(C)Nc1ncc2c(n1)CN(C(=O)NCc1ccc(F)c(Cl)c1)CC2 | 66 | 1220 | – | – |
| CC(C)Nc1ncc2c(n1)CN(C(=O)N[C@H](CO)c1ccc(F)c(Cl)c1)CC2 | 4 | 160 | – | – |
| CC(C)Nc1ncc2c(n1)CN(C(=O)N[C@@H](c1ccc(F)c(Cl)c1)[C@@H](C)O)CC2 | 3 | 88 | – | – |
| CC(C)Nc1ncc2c(n1)CN(C(=O)N[C@@H](c1ccc(F)c(Cl)c1)[C@H](C)O)CC2 | 6 | 200 | – | – |
| CC[C@H](O)[C@@H](NC(=O)N1CCc2cnc(NC(C)C)nc2C1)c1ccc(F)c(Cl)c1 | 2 | 108 | – | – |
| COC[C@@H](NC(=O)N1CCc2cnc(NC(C)C)nc2C1)c1ccc(F)c(Cl)c1 | 11 | 368 | – | – |
| COCCOC[C@@H](NC(=O)N1CCc2cnc(NC(C)C)nc2C1)c1ccc(F)c(Cl)c1 | 122 | 2110 | – | – |
| CC(C)Nc1ncc2c(n1)CN(C(=O)N[C@H](CN)c1ccc(F)c(Cl)c1)CC2 | 2 | 356 | – | – |
| CNC[C@@H](NC(=O)N1CCc2cnc(NC(C)C)nc2C1)c1ccc(F)c(Cl)c1 | 4 | 144 | – | – |
| CC(C)Nc1ncc2c(n1)CN(C(=O)N[C@H](CNCCO)c1ccc(F)c(Cl)c1)CC2 | 8 | 2760 | – | – |
| CC(C)Nc1ncc2c(n1)CN(C(=O)N[C@H](CNS(C)(=O)=O)c1ccc(F)c(Cl)c1)CC2 | 7 | 917 | – | – |
| C[C@@H](NC(=O)N1CCc2cnc(N[C@H]3CCO[C@@H](CO)C3)nc2C1)c1ccc(Cl)c(Cl)c1 | 2 | 7 | 2 | – |
| CNc1ncc2c(n1)CN(C(=O)N[C@H](CO)c1ccc(F)c(Cl)c1)CC2 | 43 | 2260 | – | – |
| CCNc1ncc2c(n1)CN(C(=O)N[C@H](CO)c1ccc(F)c(Cl)c1)CC2 | 20 | 753 | – | – |
| O=C(N[C@H](CO)c1ccc(F)c(Cl)c1)N1CCc2cnc(NCCO)nc2C1 | 9 | 2450 | – | – |
| O=C(N[C@H](CO)c1ccc(F)c(Cl)c1)N1CCc2cnc(NC3CCCC3)nc2C1 | 4 | 330 | – | – |
| C[C@@H](CO)Nc1ncc2c(n1)CN(C(=O)N[C@H](C)c1ccc(Cl)c(Cl)c1)CC2 | 1 | 21 | 104 | 0.03 |
| CC[C@@H](NC(=O)N1CCc2cnc(N[C@@H](C)CO)nc2C1)c1ccc(F)c(F)c1 | 3 | 51 | 13 | 0.226 |
| CC[C@@H](NC(=O)N1CCc2cnc(N[C@@H](C)CO)nc2C1)c1ccc(Cl)c(Cl)c1 | 2 | 23 | 12 | 0.025 |
| C[C@@H](CO)Nc1ncc2c(n1)CN(C(=O)N[C@H](C)c1ccc(C(F)(F)F)c(F)c1)CC2 | 3 | 110 | 821 | 0.013 |
| CC[C@@H](NC(=O)N1CCc2cnc(N[C@@H](C)CO)nc2C1)c1ccc(OC)c(Cl)c1 | 2 | 14 | 71 | 0.081 |
